Results taken from article PMC4125376 (Drug Target Insights, 2014).

Target: Babesia microti lactate dehydrogenase (BmLDH) (Babesia microti, UniProt I7J7V6)
Assay: NADH formation at […] nm, […] NAD+ and […] lactate, non-linear regression
Assay type: biochemical

Sequence of Babesia microti lactate dehydrogenase (BmLDH) (I7J7V6 1-332): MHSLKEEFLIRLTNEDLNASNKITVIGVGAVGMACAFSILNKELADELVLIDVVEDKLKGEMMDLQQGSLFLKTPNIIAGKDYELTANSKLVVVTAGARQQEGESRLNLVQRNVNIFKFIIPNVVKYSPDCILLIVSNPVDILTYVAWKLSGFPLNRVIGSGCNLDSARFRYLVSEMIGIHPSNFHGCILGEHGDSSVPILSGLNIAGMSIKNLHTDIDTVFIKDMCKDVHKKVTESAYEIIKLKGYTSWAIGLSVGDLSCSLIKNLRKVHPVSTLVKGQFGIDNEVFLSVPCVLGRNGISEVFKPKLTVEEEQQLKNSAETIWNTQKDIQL

In the case of `Cc1cc2c(C(C)C)c(O)c(O)c(C=O)c2c(O)c1-c1c(C)cc2c(C(C)C)c(O)c(O)c(C=O)c2c1O` [gossypol], the IC50 is reported as 0.345 ± 0.00111 µM.
